This is an account of results in patent US20040022842A1, “Liposome preparations containing oxaliplatin” (Mebiopharm Co., Ltd., priority 2002, published 2004).

SMILES strings stand for the structures.

The test system of the data set is Colon 26 cells. The experiment in a line: Cytotoxicity of oxaliplatin (L-OHP) liposomes against tumor cells, WST-1 assay (Example 7), Colon 26. The data set is classed as cell-based. Conditions: Colon 26 and AsPC-1 cells; comparison of L-OHP solution and liposome preparations. On the procedure: Colon 26 cells and AsPC-1 cells were inoculated on a 96-well plate at 5×10^3 cells per well and pre-incubated with 5% CO2 overnight.
The cells were incubated at 37° C. under 5% CO2 for 4 hours. The test solutions were removed, and the incubation was continued for an additional 2 days, at which time the number of living cells was counted. Cell viability was determined according to the WST-1 assay.
According to the WST-1 assay, the assay solution contained 5 mmol/L WST-1 reagent (10 μL); 20 mmol/L HEPES; 1-methoxy-PMS at 0.2 mmol/L, at pH 7.4. This solution was added to each well, mixed thoroughly, and incubated in a CO2 incubator for 2 hours to allow for color development. The absorbance was then measured on a plate reader at 400-450 nm, with a reference wavelength of >600 nm.

As for `O=C1[O][Pt]2([NH]C3CCCCC3[NH]2)[O]C1=O` [L-OHP solution, Oxaliplatin], the “relative cytotoxicity in words” value is listed as “showed the highest toxicity”.
